Source: patent US9115082B2, “Dipeptidyl-peptidase-IV inhibitors for treatment of type 2 diabetes complex with hypertension” (priority 2012, dated 2015)

Tested on: blood glucose
Assay: oral glucose tolerance test in diet-induced obese mice
Type: in vivo, Male C57BL/6 mice
Conditions: fasted DIO mice, 1 hour before glucose (2 g/kg) challenge
Description: Specifically, an oral glucose tolerance test in diet-induced obese mice were conducted. Male C57BL/6 mice (6-8 weeks of age) were used. Mice were fed a lean (control group) or high-fat (DIO group) diet (5 and 35% fat by weight, respectively) for 6-9 weeks and then administered an oral glucose tolerance test. […] Blood glucose was determined at various time points from tail bleeds using a glucometer. The blood glucose response curve (AUC's, t==2 hours) are 18.7±1.6, 20.1±0.7, 21.3±11.5 for above three groups, respectively.

Cl.N#CC1CCCN1C(=O)CNCC(O)COc1ccccc1 (stereo not drawn) [compound 7, 1-(2-(2-hydroxy-3-phenoxypropylamino)acetyl)pyrrolidine-2-carbonitrile hydrochloride]
blood glucose response curve (AUC's, t==2 hours) (3 mg/kg oral): 21.3±11.5
blood glucose response curve (AUC's, t==2 hours) (10 mg/kg oral): 20.1±0.7
blood glucose response curve (AUC's, t==2 hours) (30 mg/kg oral): 18.7±1.6
